Results reported in patent publication US20040086901A1, “Database for analyzing gene function and method of analyzing gene function by dspa” (priority 2000, published 2004).

Tests used:
Type in all cases: cell-based, mouse
[1] = tested on: NIH3T3 cells overexpressing coup; assay: MTT cell viability, coup overexpressing cells vs parental line; settings: coup high-expressing cells / parental cell line, 3 to 4 days
How it was run: (§1)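 Stable NIH3T3 transfectants (cDNA in pRc-CMV-type vector, G-418-selected, high expressers picked by Western blot) and parental cells were seeded at 1×10^5 cells/ml into twofold serial drug dilutions and grown 3–4 days. MTT formazan was read at 574/655 nm, and log ratios of IC40 values were derived.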

[2] = tested on: NIH3T3 cells overexpressing Ki-ras; assay: MTT cell viability, Ki-ras overexpressing cells vs parental line; settings: Ki-ras high-expressing cells / parental cell line, 3 to 4 days
How it was run: as §1

[3] = tested on: NIH3T3 cells overexpressing Regucalcin; assay: MTT cell viability, Regucalcin overexpressing cells vs parental line; settings: Regucalcin high-expressing cells / parental cell line, 3 to 4 days
How it was run: as §1

[4] = tested on: NIH3T3 cells overexpressing caspase-2; assay: MTT cell viability, caspase-2 overexpressing cells vs parental line; settings: caspase-2 high-expressing cells / parental cell line, 3 to 4 days
How it was run: as §1

[5] = tested on: NIH3T3 cells overexpressing CP-antisense; assay: MTT cell viability, CP-antisense cells vs parental line; settings: 3 to 4 days
How it was run: as §1

[6] = tested on: NIH3T3 cells overexpressing HNF1; assay: MTT cell viability, HNF1 overexpressing cells vs parental line; settings: HNF1 high-expressing cells / parental cell line, 3 to 4 days
How it was run: (§2)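 NIH3T3 high expressers vs parental; 2-fold serial dilution of drugs (DMSO stocks), 9 points; 10% CS-DMEM; 3–4 d culture; MTT 4 h 37 °C, stop with 0.04N HCl/isopropanol; A574/655. Readout is log(IC40 ratio).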

[7] = tested on: NIH3T3 cells overexpressing caspase-1; assay: MTT cell viability, caspase-1 overexpressing cells vs parental line; settings: caspase-1 high-expressing cells / parental cell line, 3 to 4 days
How it was run: as §2

[8] = tested on: NIH3T3 cells overexpressing cystatin E; assay: MTT cell viability, cystatin E overexpressing cells vs parental line; settings: cystatin E high-expressing cells / parental cell line, 3 to 4 days
How it was run: as §1

[9] = tested on: NIH3T3 cells overexpressing STAT1; assay: MTT cell viability, STAT1 overexpressing cells vs parental line; settings: STAT1 high-expressing cells / parental cell line, 3 to 4 days
How it was run: as §2

[10] = tested on: NIH3T3 cells overexpressing HNF4; assay: MTT cell viability, HNF4 overexpressing cells vs parental line; settings: HNF4 high-expressing cells / parental cell line, 3 to 4 days
How it was run: as §2

[11] = tested on: NIH3T3 cells overexpressing CaMKIIa; assay: MTT cell viability, CaMKIIa overexpressing cells vs parental line; settings: CaMKIIa high-expressing cells / parental cell line, 3 to 4 days
How it was run: as §2

[12] = tested on: NIH3T3 cells overexpressing p38-DN; assay: MTT cell viability, p38-DN overexpressing cells vs parental line; settings: p38-DN high-expressing cells / parental cell line, 3 to 4 days
How it was run: as §2

[13] = tested on: NIH3T3 cells overexpressing Bax; assay: MTT cell viability, Bax overexpressing cells vs parental line; settings: 3 to 4 days
How it was run: as §2

[14] = tested on: NIH3T3 cells overexpressing v-src; assay: MTT cell viability, v-src overexpressing cells vs parental line; settings: v-src high-expressing cells / parental cell line, 3 to 4 days
How it was run: as §1

[15] = tested on: NIH3T3 cells overexpressing TK; assay: MTT cell viability, TK overexpressing cells vs parental line; settings: TK high-expressing cells / parental cell line, 3 to 4 days
How it was run: as §1

[16] = tested on: NIH3T3 cells overexpressing CBP8; assay: MTT cell viability, CBP8 overexpressing cells vs parental line; settings: CBP8 high-expressing cells / parental cell line, 3 to 4 days
How it was run: as §1

[17] = tested on: NIH3T3 cells overexpressing p33/ING1; assay: MTT cell viability, p33/ING1 overexpressing cells vs parental line; settings: p33/ING1 high-expressing cells / parental cell line, 3 to 4 days
How it was run: as §1

[18] = tested on: NIH3T3 cells overexpressing calpastatin; assay: MTT cell viability, calpastatin overexpressing cells vs parental line; settings: calpastatin high-expressing cells / parental cell line, 3 to 4 days
How it was run: as §1

[19] = tested on: NIH3T3 cells overexpressing erbB2; assay: MTT cell viability, erbB2 overexpressing cells vs parental line; settings: erbB2 high-expressing cells / parental cell line, 3 to 4 days
How it was run: as §1

[20] = tested on: NIH3T3 cells overexpressing PDGF-R; assay: MTT cell viability, PDGF-R overexpressing cells vs parental line; settings: PDGF-R high-expressing cells / parental cell line, 3 to 4 days
How it was run: as §1

[21] = Bax (first of two Bax lines) high-expressing cells / parental cell line
[22] = Bax (second of two Bax lines) high-expressing cells / parental cell line

SMILES | logarithmic value of ratio of IC40 values [1] | logarithmic value of ratio of IC40 values [2] | logarithmic value of ratio of IC40 values [3] | logarithmic value of ratio of IC40 values [4] | logarithmic value of ratio of IC40 values [5] | logarithmic value of ratio of IC40 values [6] | logarithmic value of ratio of IC40 values [7] | logarithmic value of ratio of IC40 values [8] | logarithmic value of ratio of IC40 values [9] | logarithmic value of ratio of IC40 values [10] | logarithmic value of ratio of IC40 values [11] | logarithmic value of ratio of IC40 values [12] | logarithmic value of ratio of IC40 values [13, 21] | logarithmic value of ratio of IC40 values [13, 22] | logarithmic value of ratio of IC40 values [14] | logarithmic value of ratio of IC40 values [15] | logarithmic value of ratio of IC40 values [16] | logarithmic value of ratio of IC40 values [17] | logarithmic value of ratio of IC40 values [18] | logarithmic value of ratio of IC40 values [19] | other results
C[C@@H]1O[C@@H](O[C@H]2C[C@@H](O)[C@]3(CO)[C@H]4[C@H](O)C[C@]5(C)[C@@H](C6=CC(=O)OC6)CC[C@]5(O)[C@@H]4CC[C@]3(O)C2)[C@H](O)[C@H](O)[C@H]1O [Ouabain, ouabain] | 0.49 | 0.18 | −0.12 | −0.05 | 0.28 | 0.103 | 1.26 | 0.49 | 0.04 | −0.08 | 0.23 | 0.41 | 0.40 | 0.00 | 0.00 | 0.00 | 0.58 | 0.10 | −0.3 | 0.18 | logarithmic value of ratio of IC40 values [20]: 0.34
C=CC1=C(C)c2cc3[n-]c(cc4nc(cc5[n-]c(cc1n2)c(C)c5CCC(=O)O)C(CCC(=O)O)=C4C)c(C)c3C=C.[Cl-].[Cl-].[Sn+4] [SnPP] | 0.51 | 0.18 | 0.32 | −0.33 | 0.10 | 0.138 | −0.15 | 0.11 | 0.08 | 0.46 | 0.24 | 0.10 | 0.17 | 0.10 | −0.17 | 0.00 | 0.56 | −0.23 | 0.486 | −0.25 | logarithmic value of ratio of IC40 values [20]: −0.07
C/C=C(/C)C(=O)O[C@H]1C(C)=C2[C@H]([C@@H]1OC(=O)CCCCCCC)[C@@](C)(OC(C)=O)C[C@H](OC(=O)CCC)[C@@]1(O)[C@H]2OC(=O)[C@@]1(C)O [Thapsigargin, thapsigargin] | −0.30 | −0.05 | 0.20 | −0.07 | −0.30 | 0.16 | −0.30 | 0.00 | 0.30 | 0.00 | 0.09 | 0.02 | −0.21 | 0.20 | 0.32 | 0.06 | 0.12 | 0.49 | 0.046 | 0.11 | logarithmic value of ratio of IC40 values [20]: 0.29
COc1ccc2c(c1)CC[C@@H]1[C@@H]2CC[C@]2(C)[C@@H](NCCCCCCN3C(=O)C=CC3=O)CC[C@@H]12 [U73122] | 0.00 | −0.60 | −0.66 | −0.02 | −0.10 | 0.07 | 0.53 | −0.07 | 0.18 | 0.00 | −0.05 | 0.00 | 0.00 | 0.00 | −0.59 | 0.00 | 0.18 | 0.28 | −0.313 | −0.96 | logarithmic value of ratio of IC40 values [20]: −0.11
COC[C@H]1OC(=O)c2coc3c2[C@@]1(C)C1=C(C3=O)[C@@H]2CCC(=O)[C@@]2(C)C[C@H]1OC(C)=O [Wortmannin, wortmannin] | 0.10 | 0.34 | −0.28 | 0.52 | −0.12 | 0.16 | 0.20 | 0.00 | 0.00 | 0.14 | −0.15 | −0.18 | 0.14 | 0.10 | 0.08 | 0.00 | 0.14 | 0.00 | −0.14 | 0.16 | logarithmic value of ratio of IC40 values [20]: 0.00
C=C[C@]1(C)CC[C@@H](C(=C)C)C[C@H]1C(=C)C [b-elemene, β-elemene] | 0.52 | −0.10 | −0.09 | 0.26 | 0.00 | 0.02 | 0.11 | 0.07 | 0.05 | 0.33 | 0.16 | 0.05 | 0.14 | 0.00 | −0.35 | −0.14 | 0.06 | −0.14 | 0.18 | −0.46 | logarithmic value of ratio of IC40 values [20]: 0.00
